Results published in patent US10512627B2, “Anti-tumor compound and the medical use thereof” (Tianjin Medical University Cancer Institute and Hospital, priority 2014, dated 2019).

How the values were obtained:
[1] = test system: B16 melanoma cells; test: Artificial metastasis model of B16 mice melanoma (Example 6); format: in vivo, C57BL/6 mouse
Procedure: 3) An metastasis model of B16 mouse melanoma is constructed by direct injection of B16 cells into tail vein in C57BL/6 mouse, and the ability of a drug for inhibiting tumor metastasis is determined by counting the number of the metastatic tumors on lung. Such a model mimics the metastatic process of cancer cells from the circulatory system to the target organ, which is more similar with the metastatic way of tumor cells in the bodies of patients with advanced cancer.
The ability of (S)2-(4′-methyl-3′-nitrobenzoylamino)-3-phenylpropionic acid for inhibiting tumor metastasis in vivo was tested by artificial metastasis model of B16 mice melanoma.
1) Mice grouping: C57BL/6 of SPF grade, 5 weeks old, 18˜22 g, 8 mice for each group, half male and half female;
2) The mother liquid of (S)2-(4′-methyl-3′-nitrobenzoylamino)-3-phenylpropionic acid for the dosage form administrated by intravenous injection was diluted to 0.8 mg/mL, 0.2 mg/mL, 0.05 mg/mL by adding sterilized water. […]
3) B16 cells in logarithmic growth phase were digested with 0.05% typsine for 1 min, and after centrifugation at 1000 rpm for 5 min, the supernatant was discarded and the cells were resuspended and counted. […]
5) After the completion of the experiment, the mice were sacrificed and the lungs were taken, the number and size of melanomas on the lungs was counted, and the weight of the lungs were weighed;

[2] = Solubility; format: physicochemical; settings: dry ethanol, methanol, chloroform, dimethylformamide, dimethylsulfoxide

Cc1ccc(C(=O)N[C@@H](Cc2ccccc2)C(=O)O)cc1[N+](=O)[O-] [(S)2-(4′-methyl-3′-nitrobenzoylamino)-3-phenylpropionic acid]
tumor numbers on the lungs and lung weights compared with the negative control ([1]; 8, 2, 0.5 mg/kg tail vein, twice a day, 21 days, P<0.01): very significant difference | inhibition of metastasis of B16 mouse melanoma cell in C57BL/6 mouse ([1]; tail vein administration of 0.5 mg/kg): significantly inhibit | solubility in organic solvents [2]: highly soluble
